In patent US5593966A, “Peptide derivatives of cytochrome b558 and their use as medicaments” (The United States of America as represented by the …, priority 1990, dated 1997):
Where a SMILES comes first, the peptide text is derived from it.

What was measured:
NADPH oxidase [1] = biological target: T1, NADPH oxidase (Homo sapiens, UniProt P14598); experiment: Cell-free NADPH oxidase assay (arachidonate-stimulated O2 generation, neutrophil membrane plus cytosol); type: biochemical; settings: for Mean inhibition vs. buffer control (n), Cell-free assay: 100 μM synthetic peptide, arachidonate-stimulated O2 production, mean of n experiments in duplicate
T1 construct: Neutrophils were electropermeabilized as described; endogenous in cells; host or cells: electropermeabilized peripheral blood neutrophils (PMN), stimulated with PMA or fMLP
T1 sequence (P14598 1-390): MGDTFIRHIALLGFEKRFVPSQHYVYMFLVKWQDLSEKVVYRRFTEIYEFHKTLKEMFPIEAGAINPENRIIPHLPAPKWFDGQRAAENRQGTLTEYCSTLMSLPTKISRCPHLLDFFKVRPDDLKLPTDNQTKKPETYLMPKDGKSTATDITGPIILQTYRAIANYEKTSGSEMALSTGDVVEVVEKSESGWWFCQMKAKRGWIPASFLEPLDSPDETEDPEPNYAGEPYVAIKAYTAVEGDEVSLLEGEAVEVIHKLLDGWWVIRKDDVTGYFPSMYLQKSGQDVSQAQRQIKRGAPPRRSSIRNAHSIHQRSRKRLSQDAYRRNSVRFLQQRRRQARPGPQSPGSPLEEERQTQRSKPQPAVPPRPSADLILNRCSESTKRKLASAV
Description: Neutrophils were isolated from peripheral blood and cytosol and membrane fractions were prepared by differential centrifugation as previously described (Nunoi et al, Science, 242, 1298-1301 (1988)). Typical yields of cytosol and membrane proteins obtained were 2.8±0.1 mg/10^8 cell equivalents and 1.5±0.1 μg/10^6 cell equivalents, respectively (mean±SD, 3 separate preparations). The cell-free assay of O2 generation was modified as follows: wells contained 2.5-5.0×10^5cell equivalents neutrophil membrane, 10^6 cell equivalents neutrophil cytosol in a final volume of 100 μl reaction mixture (150 μM acetylated ferricytochrome c (11), 4 mM MgCl2, 10 μM FAD, 1 mM EGTA, 200 μM NADPH, 40 μM arachidonic acid, 10 μM GTPγ S, ±25 μg/ml superoxide dismutase in 75 mM potassium phosphate, pH 7.0). Because membrane preparations varied in activity, the amount of membrane added per well was adjusted to yield an arachidonate-stimulated O2 production of ≈0.4 nmol/min/well in the absence of synthetic peptide. The maximal linear rate of superoxide dismutase-inhibitable acetylferricytochrome c reduction (ΔO.D. […]) was converted to nmol O2 generated/min using an instrument-corrected extinction coefficient derived empirically as described (Leslie, J. Immunol. Methods, 103, 253-259 (1987)). To measure oxidase inhibition by antibodies directed against the 91 kDa subunit of cytochrome b558 membranes were solubilized in 1% deoxycholate, incubated for 30 min on ice with an equal volume of serum at various dilutions. Diluting these samples 10-fold with H2 O lowered the detergent concentration below the CMC and allowed sedimentation (130,000 g×30 min) of an oxidase-competent membrane fraction. This fraction was resolubilized in deoxycholate, and assayed for arachidonate-stimulatedO2 generation in the presence of cytosol.
In Table 1 above, the cell-free assay of O2 generation contained 2.5-5.0×10^5 cell equivalents of neutrophil (PMN) membrane, 10^6 cell equivalents PMN cytosol in a final volume of 100 μl reaction mixture. Because membrane preparations varied in activity, the amount of membrane added per well was adjusted to yield an arachidonate-stimulated O2 production of ≈0.4 nmol/min/well in the absence of synthetic peptide. Data represent the mean percent inhibition obtained in n experiments (each performed in duplicate) in the presence of 100 μM synthetic peptide compared to a simultaneous buffer control.

NADPH oxidase [2] = biological target: T1, NADPH oxidase; experiment: Permeabilized cell NADPH oxidase assay (electropermeabilized neutrophils stimulated with PMA or fMLP); type: cell-based; settings: for Mean inhibition vs. buffer control (n), Electropermeabilized cell, PMA: PMA 10 ng/ml; for Mean inhibition vs. buffer control (n), Electropermeabilized cell, PMA / Mean inhibition vs. buffer control (n), Electropermeabilized cell, FMLP: preincubation with 800 μM peptide, assay with 200 μM peptide; for Mean inhibition vs. buffer control (n), Electropermeabilized cell, FMLP: fMLP 10 μM
Description: Neutrophils were electropermeabilized as described (Grinstein et al, J. Biol. Chem., 263, 1779-1783 (1988)), incubated on ice for 30 min in permeabilization buffer (140 mM KCl, 1 mM MgCl2, 1 mM EGTA, 0.193 mM CaCl2, 1 mM ATP, 2 mM NADPH, 10 μM GTP, 10 mM glucose, 10 mM HEPES-N-methylglucamine, pH 7) supplemented with synthetic peptide (800 μM). The cells were resuspended at 5×10^6 /ml in the same buffer containing 200 μM synthetic peptide, 150 μM acetylferricytochrome c, catalase (2500 U/ml), ±25 μg/ml superoxide dismutase. Wells containing 5×10^5 cells were stimulated with PMA (10 ng/ml) or fMLP (10 μM) and O2^-- production was determined as above.
Electropermeabilized PMN were incubated on ice in permeabilization buffer supplemented with synthetic peptide (800 μM). The cells were resuspended at 5×10^6 /ml in the same buffer containing 200 μM synthetic peptide. Wells containing 5×10^5 cells were stimulated with PMA (10 ng/ml) or fMLP (10 μM) and O2 production was determined as described in "Experimental Procedures". […] Electropermeabilized PMN sham incubated without synthetic peptides and stimulated with […] or fMLP generated 8.4±1.1 nmol O2 /min/10^6 cells and 8.9±1.7 nmol O2 /min/10^6 cells, respectively (mean±SEM, 5 independent experiments).

[3] = biological target: T2, 47 kDa cytosolic oxidase factor (Homo sapiens, UniProt P14598); experiment: 47 kDa cytosolic protein phosphorylation in the cell-free reaction (immunoprecipitation, SDS-PAGE, autoradiography); type: biochemical; settings: densitometry of autoradiograms; 3 independent experiments; read-out: Half-maximal inhibitory concentration, 47 kDa protein phosphorylation
T2 construct: endogenous in cells; host or cells: neutrophil cytosol, with neutrophil membrane, in the cell-free reaction
T2 sequence (P14598 1-390): T1 sequence (P14598 1-390)
Description: Components of the cell-free phosphorylation reaction were identical to those for arachidonate-stimulated O2^- generation except for omission of acetylferricytochrome c and inclusion of γ-[^32 P]ATP (0.1 μCi/ml, sp. act. 5000 Ci/mmol). Twenty min after addition of arachidonate, aliquots of the cell-free reaction mixture were mixed with an equal volume of iced "stopping" buffer (150 mM NaCl, 10 mM EDTA, 1% deoxycholate, 1% NP-40, 50 mMNaF, 1 mMNa vanadate, 10 mM Tris, pH 7.4). Proteins bound to rabbit antibodies raised against recombinant 47 kDa protein (Lomax et al, Science, 245, 409-412 (1989)), were precipitated with protein G-sepharose (Harlow et al, Antibodies: A Laboratory Manual (Cold Spring Harbor Laboratory), 465-468 (1988)) and analyzed by SDS-PAGE and autoradiography with intensifying screens.
After stimulation of the neutrophil respiratory burst with phorbol esters the 47 kDa cytosolic oxidase factor is multiply phosphorylated and associates with plasma membrane. […] The immunoprecipitated proteins were analyzed by SDS-PAGE and autoradiography as described above. […] The half-maximal inhibitory concentration of 91 kDa cytochrome b558 carboxyterminal peptide determined by densitometry of autoradiograms was in the range of 25-50 μM in each of 3 independent experiments.

Molecule | Mean inhibition vs. buffer control (n), Cell-free assay (NADPH oxidase [1]) | Mean inhibition vs. buffer control (n), Electropermeabilized cell, PMA (NADPH oxidase [2]) | Mean inhibition vs. buffer control (n), Electropermeabilized cell, FMLP (NADPH oxidase [2]) | Inhibition of O2 production by electropermeabilized neutrophils (in words) (NADPH oxidase [2]; stimulated with fMLP or PMA) | IC50 (NADPH oxidase [1]; peptide and arachidonate added simultaneously, 5 experiments, IC50 by interpolation, read-out: Mean IC50 ±SEM, inhibition of NADPH oxidase activation) | IC50 [3]
CC(C)[C@H](NC(=O)[C@H](C)NC(=O)[C@H](Cc1c[nH]c2ccccc12)NC(=O)[C@H](CC(N)=O)NC(=O)CN)C(=O)N[C@@H](CC(N)=O)C(=O)N[C@@H](CCC(=O)O)C(=O)NCC(=O)N[C@@H](CS)C(=O)O [GNWAVNEGC] (H-GNWAVNEGC-OH) | -17% | – | – | – | – | –
CC[C@H](C)[C@H](NC(=O)[C@@H](NC(=O)[C@H](C)NC(=O)[C@H](CCC(N)=O)NC(=O)[C@H](Cc1ccccc1)NC(=O)CNC(=O)[C@H](C)NC(=O)[C@H](Cc1c[nH]cn1)NC(=O)[C@H](C)NC(=O)[C@H](CCCNC(=N)N)NC(=O)[C@H](CCCCN)NC(=O)[C@@H](N)CCCNC(=N)N)[C@@H](C)O)C(=O)O [RKRAHAGFQATI] (H-RKRAHAGFQATI-OH) | -5% | -11% | -28% | – | – | –
CC(C)C[C@H](NC(=O)[C@@H](N)Cc1c[nH]cn1)C(=O)N[C@@H](Cc1ccccc1)C(=O)N[C@@H](CC(N)=O)C(=O)N[C@H](C(=O)N[C@@H](CCC(=O)O)C(=O)N[C@@H](Cc1c[nH]c2ccccc12)C(=O)N[C@@H](CS)C(=O)O)C(C)C [HLFNVEWC] (H-HLFNVEWC-OH) | -17% | -6% | 6% | – | – | –
CC[C@H](C)[C@H](NC(=O)[C@H](Cc1ccccc1)NC(=O)[C@H](Cc1c[nH]cn1)NC(=O)[C@@H](NC(=O)CNC(=O)[C@@H](N)CCCNC(=N)N)C(C)C)C(=O)N[C@@H](Cc1ccccc1)C(=O)O [RGVHFIF, Arg--Gly--Val--His--Phe--Ile--Phe] (H-RGVHFIF-OH) | 97% | 72% | 73% | – | – | –
NC(N)=NCCC[C@H](NC(=O)[C@H](Cc1ccccc1)NC(=O)[C@@H]1CCCN1C(=O)[C@H](CO)NC(=O)[C@H](Cc1ccccc1)NC(=O)CNC(=O)[C@@H]1CCCN1C(=O)[C@@H]1CCCN1C(=O)[C@@H](N)CCCN=C(N)N)C(=O)O [Bradykinin] (H-RPPGFSPFR-OH) | -8% | -8% | -6% | – | – | –
CC[C@H](C)[C@H](NC(=O)[C@H](Cc1ccccc1)NC(=O)[C@H](Cc1c[nH]cn1)NC(=O)[C@@H](NC(=O)CNC(=O)[C@H](CCCNC(=N)N)NC(=O)[C@@H]1CCCN1C(=O)CNC(=O)[C@H](CO)NC(=O)[C@H](CCC(=O)O)NC(=O)[C@H](CO)NC(=O)[C@H](CC(N)=O)NC(=O)[C@H](CO)NC(=O)[C@@H](N)CS)C(C)C)C(=O)N[C@@H](Cc1ccccc1)C(=O)N[C@@H](CC(N)=O)C(=O)N[C@@H](CCCCN)C(=O)N[C@@H](CCC(=O)O)C(=O)N[C@@H](CC(N)=O)C(=O)N[C@@H](Cc1ccccc1)C(=O)O (H-CSNSESGPRGVHFIFNKENF-OH) | – | – | – | – | 32 ± 2 µM | 25 to 50 µM

The remaining lines, values ahead:

Mean inhibition vs. buffer control (n), Cell-free assay (NADPH oxidase [1]) | Mean inhibition vs. buffer control (n), Electropermeabilized cell, PMA (NADPH oxidase [2]) | Mean inhibition vs. buffer control (n), Electropermeabilized cell, FMLP (NADPH oxidase [2]) | Inhibition of O2 production by electropermeabilized neutrophils (in words) (NADPH oxidase [2]; stimulated with fMLP or PMA) | IC50 (NADPH oxidase [1]; peptide and arachidonate added simultaneously, 5 experiments, IC50 by interpolation, read-out: Mean IC50 ±SEM, inhibition of NADPH oxidase activation) | IC50 [3] | Molecule
10% | 3% | -5% | – | – | – | CSCC[C@H](NC(=O)[C@H](CO)NC(=O)[C@H](Cc1ccccc1)NC(=O)[C@@H](N)C(C)C)C(=O)N[C@@H](Cc1ccccc1)C(=O)N[C@@H](CCC(N)=O)C(=O)NCC(=O)N[C@@H](CCC(=O)O)C(=O)N[C@@H](CCC(=O)O)C(=O)N[C@@H](CO)C(=O)O [VFSMFQGEES] (H-VFSMFQGEES-OH)
-8% | -1% | 2% | – | – | – | NC(=O)C[C@H](NC(=O)[C@@H](N)CO)C(=O)N[C@@H](CO)C(=O)N[C@@H](CCC(=O)O)C(=O)N[C@@H](CO)C(=O)NCC(=O)N1CCC[C@H]1C(=O)O [SNSESGP] (H-SNSESGP-OH)
96% | – | – | – | – | – | CC[C@H](C)[C@H](NC(=O)[C@H](Cc1ccccc1)NC(=O)[C@H](Cc1c[nH]cn1)NC(=O)[C@@H](NC(=O)CNC(=O)[C@H](CCCNC(=N)N)NC(=O)[C@@H]1CCCN1C(=O)CNC(=O)[C@H](CO)NC(=O)[C@H](CCC(=O)O)NC(=O)[C@H](CO)NC(=O)[C@H](CC(N)=O)NC(=O)[C@@H](N)CO)C(C)C)C(=O)N[C@@H](Cc1ccccc1)C(=O)N[C@@H](CC(N)=O)C(=O)N[C@@H](CCCCN)C(=O)N[C@@H](CCC(=O)O)C(=O)N[C@@H](CC(N)=O)C(=O)N[C@@H](Cc1ccccc1)C(=O)O [SNSESGPRGVHFIFNKENF] (H-SNSESGPRGVHFIFNKENF-OH)
93% | 61% | 67% | inhibited | – | – | RGVHFIFNKENF [Residues 559-570 of the 91 kDa subunit of cytochrome b558]
